# Test system: xenograft models of prostate cancer
# Experiment: In vivo antitumor efficacy
# Set-up: species or system mice
# Settings: Dox 22 μg/mL or Tf-Dox containing 5 μg/mL Dox i.v.; Ad.DD3 intratumoral 7 days before; 14 days observation
# From the text: To study the in vivo enhancement effect of the genetic probes on the antitumor efficacy of Tf-Dox, we first established xenograft models of prostate cancer by subcutaneous injection of LNCap tumor cells (about 1×10^6) in Matrigel (BD Biosciences; 1/1) into the left shoulder of BALB/c male mice. […] During 14 days of observation, we monitored the tumor volumes according to the following formula: V=a×b^2/2 where a and b were the longest and shortest diameters of the tumor, respectively, measured using a Vernier caliper. […] The reduced injection dose, in turn, is promising to lower down the distribution and biotoxicity of drugs towards the normal tissues. […] Thus, the optimized therapy outcome of the gene-nanoparticle synergetic strategy is resulted from the enhanced tumor homing ability of the nanoparticles leading to higher DOX accumulation in the tumor cells rather than the antitumor effect of the gene probes.
# Xenograft models of prostate cancer were established by subcutaneous injection of LNCap tumor cells (about 1×10^6) in Matrigel (BD Biosciences; 1/1) into the left shoulder of BALB/c male mice. […] Changes in tumor volume and body weight were monitored at several scheduled time-points. The volume of the tumor was calculated according to the following formula: V=a×b^2/2 where a and b were the longest and shortest diameters of tumor, respectively, measured using a Vernier calliper. […]
substance,measurement,value
Tf-Dox,Tumor volume / tumor inhibition,an increase of tumor volume was visualized
